Source: patent publication US12686657B2, “Anti-inflammatory carboxamide derivatives” (BIOMEDCODE HELLAS SA, priority 2021, dated 2026)
Read-outs that look alike come from different tables or passages of the source.

Experiments:
[1] = tested on: hTNF-activated wt SFs; assay: CCL5 and CCL20 ELISA on hTNF-activated wild type synovial fibroblasts; type: cell-based, mice
Source text: (§1) Primary SFs were derived from a) human TNF transgenic (hTNFTg) mice (Keffer et al., 1991) as well as from b) CBA/C57BL6 wild type mice.
By testing the compounds in a) and b) we accessed their effect on the activated SFs phenotype caused by both the endogenous hTNF upregulation and the exogenous hTNF administration. In this way it was confirm the ability of the compounds of the invention to act in the TNF pathway directly downstream of TNF.
(§2) SFs were isolated as previously described by Armaka et al., 2009, from the ankle joints of hTNFtg or CBA/C57BL6 wild type (wt) littermates. Briefly, ankle joints were digested with Collagenase IV (Sigma Aldrich, C5138) for 45 minutes at a 37° C. shaking waterbath and after 5 days in culture at 37° C. and 5% CO2, a depletion of CD45+ lineage cells was performed using a Biotin anti-mouse CD45 Antibody (Biolegend, 103104) and Dynabeads™ Biotin Binder (ThermoFisher 11047), according to the manufacturer's protocol. After 10 days in culture, SFs were seeded overnight (O/N) at a concentration of 2×10^4 cells/well in a 96 well plate in 1×DMEM, supplemented with 100 U/ml Penicillin Streptomycin (P/S) and 10% Fetal Bovine Serum (FBS). The next day the cells were synchronized by starvation that included their O/N plating in low serum medium (0.5% FBS). Following the O/N starvation, the hTNFg and the WT SFs were treated with different concentrations of the experimental compounds. The SFs were at the same time activated with 10 ng/ml hTNF (Peprotech, 300-01A). 48 h following the treatment the cell culture supernatants were collected and analyzed by ELISA (R&S Systems, Duoset, DY478 and DY760) according to the manufacturer's protocol, for the detection of CCL5/Rantes and CCL20/Mip3, two known inflammatory chemokines. The IC50 values were determined as the concentration of the compounds required to reduce the levels of secreted CCL5 and CCL20 by 50%.
In order to determine the efficiency of the compounds of the invention, the same protocol was repeated with some minor modifications. Mainly, the concentration of hTNF was 10-fold reduced, i.e., adjusted to 1 ng/ml, and the SFs were seeded overnight at a concentration of 10^4 cells/well.
(§3) Table 7 summarizes the reduction of CCL5 and CCL20 levels achieved with the test compounds of the invention. Data are presented as percentages of the chemokine levels detected in treated cells compared to 100% levels of the chemokines detected in the untreated cells.
(§4) Table 8 summarizes the values of IC50 and toxicity for the test compounds of the invention. Dose response curves regarding the WT SFs were produced with 10 ng/ml hTNF stimulation for all compounds, with the exception of the compounds E and F, where WT cells were induced using hTNF at 1 ng/ml: […]

[2] = tested on: hTNFtg SFs; assay: CCL5 and CCL20 ELISA on hTNFtg synovial fibroblasts; type: cell-based, mice; details: Mus musculus, Fibroblast; for activity at 10 µM: compound 10 μM; for activity at 10 µM / activity at 25 µM / activity at 50 µM: 48 h; for activity at 25 µM: compound 25 μM; for activity at 50 µM: compound 50 μM
Description: as §1
hTNFtg mice overexpress human TNF, resulting in the spontaneous development of arthritis.
as §2, §3, §4

[3] = tested on: C57BL/6J mice; assay: In vivo LPS acute systemic inflammation model, serum cytokines and chemokines (Legendplex); set-up: key to IL-1β in sera, Average / IL-17A in sera, Average / IL-27 in sera, Average / GM-CSF in sera, Average / KC in sera, Average / MCP1 in sera, Average / IP-10 in sera, Average / MIP-1A in sera, Average / MIP-1B in sera, Average / MDC in sera, Average / IL-23 in sera, Average / TNF-α in sera, Average: serum concentration in pg/ml; IL12p70 in sera, Average / IFN-γ in sera, Average: unit: pg/ml; details: 1 μg LPS i.p.
Description: In order to evaluate in vivo the anti-inflammatory effect of the test compounds a model of in vivo LPS acute systemic inflammation was used where C57BL/6J mice were challenged by administration of 1 μg LPS. Each one of the compounds 51 to 53 was administered to C57BL/6J mice per os in two doses of 50 mg. Two hours after administering the first dose, the animals received the second p.o. dose of each compound and were also challenged with 1 μg LPS intraperitoneally. Sera samples were collected 1.5 hrs post induction in order to measure the levels of 13 cytokines using the pro-inflammatory panel from Legendplex (cat no 740446) and following manufacturer's instructions. Four biological replicates were performed and the average and SEM were calculated with the obtained results.
The same protocol was followed but administering compound 53 at 100 mg/kg. In this case both the levels of the 13 cytokines but also of 13 chemokines were measured, using the pro-inflammatory panel from Legendplex (cat no 740007).
The anti-inflammatory effect of the test compounds 51, 52 and 53 was assessed in vivo in the LPS model of acute inflammation. Administration of the endotoxin Lipopolysaccharide (LPS) to mice induces acute inflammatory responses similar to the inflammatory response that occurs during the early stages of septic shock. Shortly after administration of the endotoxin, cytokines and chemokines are released. This model is fast, cost-effective and widely used for screening of anti-inflammatory properties of test items aimed for treatment of a number of inflammatory and autoimmune conditions (Seemann et al., 2017; Stortz et al., 2017).
Sera samples from the treated mice with the 50 mg/Kg doses of the test compounds 51-53 were evaluated using the mouse pro-inflammatory panel of Legendplex and the data acquired are presented as pg/ml in Table 11. Vehicle, 52 and 53 were tested in quadruplicates (vehicle_1-4), 51 in triplicate (51_1-3).
Sera samples from the treated mice with test compounds 53 with 100 mg/Kg were also evaluated using the mouse pro-inflammatory cytokine and chemokine panel of Legendplex and the effect of compound 53 at a higher dose (100 mg/kg) in inhibiting inflammatory cytokines and chemokines is presented in the Table 12 below.

[4] = 1 ng/mL hTNF, compound 10 μM, 48 h
[5] = 1 ng/mL hTNF, compound 25 μM, 48 h
[6] = 10 ng/mL hTNF, compound 10 μM, 48 h
[7] = 10 ng/mL hTNF, compound 25 μM, 48 h
[8] = Mus musculus, Fibroblast, hTNF at 1 ng/ml, read-out: IC50 (μM) CCL5 WT
[9] = Mus musculus, Fibroblast, hTNF at 1 ng/ml, read-out: IC50 (μM) CCL20 WT
[10] = read-out: CCL5 hTNFtg, percentage of level in untreated cells
[11] = read-out: CCL20 hTNFtg, percentage of level in untreated cells
[12] = read-out: IC50 (μM) CCL5 hTNFtg
[13] = read-out: IC50 (μM) CCL20 hTNFtg
[14] = 1 ng/mL hTNF, compound 50 μM, 48 h
[15] = 10 ng/mL hTNF, compound 50 μM, 48 h
[16] = Mus musculus, Fibroblast, 10 ng/ml hTNF stimulation, read-out: IC50 (μM) CCL5 WT
[17] = Mus musculus, Fibroblast, 10 ng/ml hTNF stimulation, read-out: IC50 (μM) CCL20 WT
[18] = 50 mg/Kg per os, two doses, sera 1.5 hrs post induction

Compound	CCL5 WT, percentage of level in untreated cells [1, 4] [%]	CCL5 WT, percentage of level in untreated cells [1, 6] [%]	activity at 10 µM [2, 10] [%]	activity at 10 µM [2, 11] [%]	IC50 [2, 12] [µM]	IC50 [2, 13] [µM]	CCL20 WT, percentage of level in untreated cells [1, 4] [%]	CCL5 WT, percentage of level in untreated cells [1, 14] [%]	CCL20 WT, percentage of level in untreated cells [1, 6] [%]	CCL5 WT, percentage of level in untreated cells [1, 15] [%]	IC50 [1, 16] [µM]	IC50 [1, 17] [µM]	IL-1α in sera, Average [3, 18] [pg/mL]	IL-1β in sera, Average [3, 18] [pg/mL]	IL-6 in sera, Average [3, 18] [pg/mL]	IL-10 in sera, Average [3, 18] [pg/mL]	IL-17A in sera, Average [3, 18] [pg/mL]	MCP-1 in sera, Average [3, 18] [pg/mL]	activity at 50 µM [2, 10] [%]	activity at 50 µM [2, 11] [%]	further results
COc1cc(N)c(Cl)cc1C(=O)NCC1(Nc2cccc(OC(F)(F)F)c2)CCCCCC1 [F, 4-amino-5-chloro-2-methoxy-N-((1-((3-(trifluoromethoxy)phenyl)amino)cycloheptyl)methyl)benzamide]	0	12	0	24	< 0.01	< 0.01															CCL5 WT, percentage of level in untreated cells [1, 5]: 0%; CCL20 WT, percentage of level in untreated cells [1, 5]: 7%; CCL5 WT, percentage of level in untreated cells [1, 7]: 9%; CCL20 WT, percentage of level in untreated cells [1, 7]: 10%; IC50 [1, 8]: 0.09 µM; IC50 [1, 9]: 0.129 µM; activity at 25 µM [2, 10]: 0%; activity at 25 µM [2, 11]: 29%
COc1cc(N)c(Cl)cc1C(=O)NCC1(c2ccc(Cl)cc2)CCCCCC1 [Compound 52, 4-amino-5-chloro-N-((1-(4-chlorophenyl)cycloheptyl)methyl)-2-methoxybenzamide]	48	27	50	67	4.2	15	45	22	15	14	1.4	1.5	43.1	118.5	3988.8	1692.2	27.7	4916.5	29	48	activity at 50 µM ([1]; Mus musculus, Fibroblast, 48 h, 1 ng/mL hTNF, compound 50 μM, 48 h, read-out: CCL20 WT, percentage of level in untreated cells): 17%
COc1cc(N)c(Cl)cc1C(=O)NCC1(c2ccc(Cl)cc2)CCCCC1 [Compound 51, 4-amino-5-chloro-N-((1-(4-chlorophenyl)cyclohexyl)methyl)-2-methoxybenzamide]	54	67	46	16	2.6	1	63	20	14	39	10.4	3	27.4	87.0	4702.5	1774.5	43.8	4689.1	47	13	CCL20 WT, percentage of level in untreated cells [1, 14]: 35%; CCL20 WT, percentage of level in untreated cells [1, 15]: 5%
COc1cc(N)c(Cl)cc1C(=O)NCC1(Nc2ccc(F)cc2Cl)CCCCCC1 [E, 4-amino-5-chloro-N-((1-((2-chloro-4-fluorophenyl)amino)cycloheptyl)methyl)-2-methoxybenzamide]	0	13	8.2	14	1.69	4.07	2		5												CCL5 WT, percentage of level in untreated cells [1, 5]: 0%; CCL20 WT, percentage of level in untreated cells [1, 5]: 3%; CCL5 WT, percentage of level in untreated cells [1, 7]: 11%; CCL20 WT, percentage of level in untreated cells [1, 7]: 2%; IC50 [1, 8]: 0.59 µM; IC50 [1, 9]: 0.167 µM; activity at 25 µM [2, 10]: 5%; activity at 25 µM [2, 11]: 20%
COc1cc(N)c(Cl)cc1C(=O)NCC1(Nc2ccc(Cl)cc2)CCCCCC1 [Compound 53, 4-amino-5-chloro-N-((1-((4-chlorophenyl)amino)cycloheptyl)methyl)-2-methoxybenzamide]	16	35	40	22	2.3	3.2	26	8	15	26	2.9	2.3	67.3	113.1	5145	2616.1	55.1	5149	34	22	CCL20 WT, percentage of level in untreated cells [1, 14]: 9%; CCL20 WT, percentage of level in untreated cells [1, 15]: 8%; GM-CSF in sera, Average ([3]; 100 mg/kg p.o.): 9.8; IFN-γ in sera, Average ([3]; 100 mg/kg p.o.): 6.7; IL12p70 in sera, Average ([3]; 100 mg/kg p.o.): 5.7; IL-1β in sera, Average ([3]; 100 mg/kg p.o.): 12.4; IL-17A in sera, Average ([3]; 100 mg/kg p.o.): 3.7; IL-23 in sera, Average ([3]; 100 mg/kg p.o.): 16.6; IL-27 in sera, Average ([3]; 100 mg/kg p.o.): 16.1; IP-10 in sera, Average ([3]; 100 mg/kg p.o.): 45.2; KC in sera, Average ([3]; 100 mg/kg p.o.): 4227.5; MCP1 in sera, Average ([3]; 100 mg/kg p.o.): 1246.2; MDC in sera, Average ([3]; 100 mg/kg p.o.): 56.6; MIP-1A in sera, Average ([3]; 100 mg/kg p.o.): 244.3; MIP-1B in sera, Average ([3]; 100 mg/kg p.o.): 1301.1; TNF-α in sera, Average ([3]; 100 mg/kg p.o.): 136.8
